Values joined by “and” are separate entries in the source; they are usually repeats but may differ in a detail not shown here. Equal values may be shown once.

This is an account of results in article PMC7002685, “Inhibition of vascular calcification by inositol phosphates derivatized with ethylene glycol oligomers” (Nature Communications, 2020).

The test system of the assay is transformation of CPP1 to CPP2 in pooled human serum. Description: In vitro serum calcification propensity (T50) screening assay. Type of assay: biochemical. Details: key to T50: T50 in minutes (time to 50% CPP phase transition). The settings on record: for T50: one value per experiment; for activity/unit mass: mean c350 x mw (Na salt); for concentration upon which a T50 of 350 min is reached (c350), mean: mean of n experiments; for concentration upon which a T50 of 350 min is reached (c350), single experiment: one value per experiment (lab journal reference E05-E40); for Concentration at T50 = 350 min mean ± s.d. (n) (c350): pooled human serum, 10 mM calcium, 6 mM phosphate, 37 °C; for c350: unit not printed in the sentence (equals mg/L column of rebuttal Table 1). The protocol:
The compounds were ranked for calcification inhibition activity using a nanoparticle-based test, developed for risk stratification, which measures the propensity for calcification in patient serum. […] The time, after which 50% of CPP phase transition occurred (T50), was assessed by time-resolved spectrophotometry at 550 nm (Supplementary Fig. 1a).
The screening assay was performed as described previously. In brief, pooled human serum (H4522, Sigma-Aldrich) stored at −20 °C was thawed at 37 °C, centrifuged (10,000 × g, and 4 °C, 30 min) (5427R, Eppendorf, Switzerland), and sterile filtered (0.22 μm filter, Millipore, Merck KGaA) to remove potential cryoprecipitates (cleared human serum). The calcium solution was 40 mM CaCl2 (102382, Merck KGaA) in HBS, pH 7.4 (RT) (100 mM HEPES (H3375, Sigma-Aldrich) and 140 mM NaCl (1734712, Fisher Scientific, Hampton, NH, USA)). […] All salt solutions and buffers were double sterile filtered (0.22 µm) and pre-warmed to 37 °C prior to use. […] The plate was sealed with an adhesive film and the absorption at 550 nm was measured every 3 min with 1 min in-between shaking for a total of 300 cycles at 37 °C using the infinite M200 microplate reader (Tecan, Männedorf, Switzerland). An A550 vs. time graph was generated and T50 (min) (time at half-maximum transition from CPP1 to CPP2) values were derived by sigmoidal curve fit using Prism 8 (nonlinear regression in the log(agonist) vs. response–variable slope (four parameter mode) using the robust fit fitting method, GraphPad Software, San Diego, CA, USA). Activities between compounds were compared by generating a T50 (min) vs. concentration (µM) graph, calculating nonlinear regression and deriving the concentration required to delay T50 to 350 min (c350) using a standard equation for the dose–response curve, Eq. (1), whereby x = [compound], y = time (min), bottom = baseline response, top = maximum response, T50 = [drug] that leads to half-maximum response, and the hill slope is a factor that describes the steepness of the curve.1 y= bottom+top - bottom/1+T50/x^hillslope.

For `COCCOCCOCCOCCOCCOCCOCCOCCOCCOCCOCCO[C@@H]1[C@@H](OS(=O)(=O)O)[C@H](OP(=O)(O)O)[C@@H](OS(=O)(=O)O)[C@@H](OP(=O)(O)O)[C@H]1OS(=O)(=O)O` (racemic) [OEG11-IP2S3, (±)-4-O-(methoxy-undecaethyleneglycol)-1,3,5-O-tris(sulfato)-myo-inositol-2,6-O-bis(phosphate)], the activity/unit mass turned out to be 22.87 mg/L; the “concentration upon which a T50 of 350 min is reached (c350), mean” value (“concentration upon which a T50 … mean” below) amounted to 18.6 µM; the “concentration upon which a T50 of 350 min is reached (c350), single experiment” value was 16.2 µM and 19.4 µM and 17.1 µM and 19.2 µM and 20.9 µM; the “Concentration at T50 = 350 min mean ± s.d. (n) (c350)” value (“Concentration … (n) (c350)” for short) was 18.6 ± 1.9 (5) µM and 22.9 ± 2.3 (5) mg/L. Besides, the T50 (concentration 0.3 μM) was determined as 256.3. Further, the T50 (concentration 1 μM) is 217.567 and 236.467 and 212.467. For the same compound, for the setting “concentration 3 μM”, the T50 is 261.167 and 253.1 and 226.6. For the same compound, the T50 (concentration 10 μM) was 303.9 and 300.967 and 303.767 and 294.6. The T50 (concentration 30 μM) was 430.533 and 413.2 and 437.833 and 410.233. Besides, where the note is “concentration 50 μM”, the T50 is 586.8 and 587.733 and 528.367.

For magnesium citrate, the “Concentration … (n) (c350)” value was >100 (3) µM and >21.4 (3) mg/L. For the same compound, for the setting “concentration 1 μM”, the T50 was 196.233 and 242.1 and 288.4. Besides, the T50 (concentration 3 μM) was 190.533 and 253.267 and 289.2. Further, the T50 (concentration 10 μM) was 197.533 and 253.867 and 304.8. In addition, for the setting “concentration 30 μM”, the T50 is 198.933 and 273.433 and 307.3. Moreover, the T50 (concentration 100 μM) is 228.767 and 304.4 and 351.8.

As to `O=P(O)(O)O[C@@H]1[C@@H](O)[C@H](OP(=O)(O)O)[C@@H](OP(=O)(O)O)[C@H](O)[C@@H]1OP(=O)(O)O` [IP4, myo-Inositol-2,3,5,6-tetrakisphosphate], the “concentration upon which a T50 … mean” value was 19.5 µM; the “concentration upon which a T50 of 350 min is reached (c350), single experiment” value was 20.1 µM and 19.8 µM and 18.8 µM; the “Concentration … (n) (c350)” value is 19.5 ± 0.7 (3) µM and 13.2 ± 0.5 (3) mg/L. Where the note is “concentration 1 μM”, the T50 was 211 and 218.833 and 216.333. Where the note is “concentration 3 μM”, the T50 was 225 and 236 and 231.367. Moreover, the T50 (concentration 10 μM) is 262.033 and 281.067 and 280.633. For the same compound, where the note is “concentration 30 μM”, the T50 was 466.533 and 430.4 and 481.633. The T50 (concentration 50 μM) is 774.233 and 614.5 and 810.35.

Regarding `O=P(O)(O)O[C@@H]1[C@@H](O)[C@@H](OP(=O)(O)O)[C@@H](O)[C@H](O)[C@H]1O` [IP2, myo-Inositol-2,4-diphosphate], the “concentration upon which a T50 … mean” value worked out at 35.0 µM; the “concentration upon which a T50 of 350 min is reached (c350), single experiment” value was 27.3 µM and 35.1 µM and 42.7 µM; the “Concentration … (n) (c350)” value was 35.0 ± 7.7 (3) µM and 15.0 ± 3.3 (3) mg/L. In addition, the T50 (concentration 1 μM) is 228.333 and 230.233 and 205.967. Further, the T50 (concentration 3 μM) was 236.4 and 226.467 and 221.933. For the setting “concentration 10 μM”, the T50 was 274.433 and 257.367 and 241.267. For the setting “concentration 30 μM”, the T50 was 358.8 and 323.1 and 304.6. Also, the T50 (concentration 50 μM) was 407.867 and 425.367 and 375.7.

`O=P1(O)OP(=O)(O)O[C@H]2[C@@H](O1)[C@@H]1OP(=O)(O)OP(=O)(O)O[C@H]1[C@@H]1OP(=O)(O)OP(=O)(O)O[C@@H]21` (racemic) [ITPP, myo-inositol trispyrophosphate]: the activity/unit mass came to 60.60 mg/L; the “concentration upon which a T50 … mean” value is more than 100 µM; the “Concentration … (n) (c350)” value is >100 (4) µM and >60.6 (4) mg/L. Moreover, the T50 (concentration 1 μM) is 193.4 and 250.1 and 242.3 and 298. Besides, for the setting “concentration 3 μM”, the T50 was 191.467 and 273.733 and 236.7 and 299.7. For the setting “concentration 10 μM”, the T50 was 194.6 and 250.333 and 260.467 and 308.2. Also, the T50 (concentration 30 μM) was 200.233 and 253.8 and 260.967. Moreover, the T50 (concentration 50 μM) is reported as 203.167. For the same compound, under “concentration 100 μM”, the T50 is 274.033 and 292.433.

Take `COCCOCCOCCOCCOCCOCCOCCO[C@@H]1[C@@H](OP(=O)(O)O)[C@H](OP(=O)(O)O)[C@@H](OP(=O)(O)O)[C@@H](OP(=O)(O)O)[C@H]1OP(=O)(O)O` (racemic) [OEG7-IP5, (±)-6-O-(methoxy-heptaethyleneglycol)-myo-inositol-1,2,3,4,5-pentakis(phosphate)]: the activity/unit mass was determined as 7.56 mg/L; the “concentration upon which a T50 … mean” value was determined as 6.7 µM; the “concentration upon which a T50 of 350 min is reached (c350), single experiment” value is 5.8 µM and 6.8 µM and 7.6 µM; the “Concentration … (n) (c350)” value was 6.7 ± 0.9 (3) µM and 7.6 ± 1.0 (3) mg/L. Also, for the setting “concentration 0.3 μM”, the T50 was 220.667 and 225.7 and 210.2. Moreover, under “concentration 1 μM”, the T50 was 229.7 and 230.533 and 222.7. For the same compound, the T50 (concentration 3 μM) was 271.4 and 260.7 and 241.467. For the same compound, the T50 (concentration 10 μM) was 480.067 and 432.633 and 427.367.

On to `COCCOCCO[C@H]1[C@@H](OP(=O)(O)O)[C@H](OP(=O)(O)O)[C@@H](OP(=O)(O)O)[C@H](OP(=O)(O)O)[C@H]1OP(=O)(O)O` [2-mono-OEG2-IP5, (±)-2-O-(methoxy-diethyleneglycol)-myo-inositol-1,2,3,5,6-pentakis(phosphate)], for which the “Concentration … (n) (c350)” value stood at 8.8 ± 0.1 µM and the c350 was 7.9 ± 0.1. The “Concentration … (n) (c350)” value (listed as (±)-2-O-(methoxy-diethyleneglycol)-myo-inositol-1,2,3,5,6-pentakis(phosphate)) came to 7.9 ± 0.1 mg/L.

Regarding `COCCOCCOCCOCCOCCOCCOCCO[C@@H]1[C@@H](OP(=O)(O)O)[C@H](OCCOCCOCCOCCOCCOCCOCCOC)[C@@H](OP(=O)(O)O)[C@@H](OP(=O)(O)O)[C@H]1OP(=O)(O)O` [(OEG7)2-IP4, 4,6-Di-O-(methoxy-heptaethyleneglycol)-myo-inositol-1,2,3,5-tetrakis(phosphate)], the activity/unit mass turned out to be 5.96 mg/L; the “concentration upon which a T50 … mean” value was determined as 4.5 µM; the “concentration upon which a T50 of 350 min is reached (c350), single experiment” value is 4.1 µM and 4.9 µM and 4.5 µM; the “Concentration … (n) (c350)” value was 4.5 ± 0.4 (3) µM and 6.0 ± 0.6 (3) mg/L. For the same compound, the T50 (concentration 0.3 μM) is 217.433 and 203.2 and 207.5. Also, where the note is “concentration 1 μM”, the T50 is 243.55 and 226.667 and 233.367. Besides, where the note is “concentration 3 μM”, the T50 was 297.4 and 271.533 and 282.8. For the same compound, under “concentration 10 μM”, the T50 is 754.35 and 624.433 and 692.333.

In the case of `COCCOCCO[C@@H]1[C@@H](OP(=O)(O)O)[C@H](OP(=O)(O)O)[C@@H](OP(=O)(O)O)[C@@H](OP(=O)(O)O)[C@H]1OP(=O)(O)O` (racemic) [OEG2-IP5, (±)-6-O-(methoxy-diethyleneglycol)-myo-inositol-1,2,3,4,5-pentakis(phosphate)], the activity/unit mass was 7.10 mg/L; the “concentration upon which a T50 … mean” value was determined as 7.9 µM; the “concentration upon which a T50 of 350 min is reached (c350), single experiment” value is 5.5 µM and 7.4 µM and 10.7 µM; the “Concentration … (n) (c350)” value is 7.9 ± 2.7 (3) µM and 7.1 ± 2.4 (3) mg/L. Further, the c350 was found to be 7.1 ± 2.4. Also, for the setting “concentration 0.3 μM”, the T50 is 233.1 and 222.8 and 210.3. Where the note is “concentration 1 μM”, the T50 is 261.7 and 258.567 and 225.033. Moreover, under “concentration 3 μM”, the T50 was 295.2 and 270.867 and 244.067. For the setting “concentration 10 μM”, the T50 is 440.033 and 391.7 and 340.167. Where the note is “listed as (±)-4-O-(methoxy-diethyleneglycol)-myo-inositol-1,2,3,5,6-pentakis(phosphate)”, the “Concentration … (n) (c350)” value was 7.9 ± 2.7 µM and 7.1 ± 2.4 mg/L.
